Data from the supplement of paper PMC10307832.

Assays:
Experiment in all cases: relative viability (nuclei count vs DMSO), 5 days (fraction); higher = more cells survive
IDH-C35 + Pictilisib = compound: Cc1ccccc1C(C(=O)NC1CCCCC1)N(C(=O)Cn1ccnc1C)c1cccc(F)c1 [IDH-C35] + CS(=O)(=O)N1CCN(Cc2cc3nc(-c4cccc5[nH]ncc45)nc(N4CCOCC4)c3s2)CC1 [Pictilisib] (partner 1 µM)
Summary of the method: (§1)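 Lung cancer cell lines were pin-tool dosed in 1536-well plates on the day after seeding, with either a lone drug or a fixed anchor-drug dose plus five library-drug doses (not always all listed) in √10 steps. Nuclei were counted on 4× images after 5 days. Relative viability is the ratio of treated-well to vehicle-well nuclei counts, with each value a median of duplicate plates.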

[1] = compound: CC1=C(C(=NN1)C)CC2=C(C3=C(S2)N(C(=O)N(C3=O)C)CC(C)C)C(=O)N4C[C@@H](CO4)O + COc1cc2c(Oc3ccc(NC(=O)C4(C(=O)Nc5ccc(F)cc5)CC4)cc3F)ccnc2cc1OCCCN1CCOCC1 [Foretinib] (partner 0.25 µM)
Summary of the method: as §1

[2] = compound: CC1=C(C(=NN1)C)CC2=C(C3=C(S2)N(C(=O)N(C3=O)C)CC(C)C)C(=O)N4C[C@@H](CO4)O + C[C@@H](Oc1cc(-c2cnn(C3CCNCC3)c2)cnc1N)c1c(Cl)ccc(F)c1Cl [Crizotinib] (partner 1 µM)
Summary of the method: as §1

[3] = compound: CC1=C(C(=NN1)C)CC2=C(C3=C(S2)N(C(=O)N(C3=O)C)CC(C)C)C(=O)N4C[C@@H](CO4)O + C[C@]1(O)C[C@@H](c2nc(-c3ccc4ccc(-c5ccccc5)nc4c3)c3c(N)nccn32)C1 [Linsitinib] (partner 1 µM)
Summary of the method: as §1

Row | Cell Line | relative viability (IDH-C35 + Pictilisib; first compound 0.08 µM) | relative viability (IDH-C35 + Pictilisib; first compound 0.253 µM) | relative viability (IDH-C35 + Pictilisib; first compound 0.8 µM) | relative viability (IDH-C35 + Pictilisib; first compound 2.53 µM) | relative viability (IDH-C35 + Pictilisib; first compound 8 µM) | relative viability ([1]; first compound 0.0025 µM) | relative viability ([1]; first compound 0.007906 µM) | relative viability ([1]; first compound 0.025 µM) | relative viability ([1]; first compound 0.07906 µM) | relative viability ([1]; first compound 0.25 µM) | relative viability ([2]; first compound 0.0025 µM) | relative viability ([2]; first compound 0.007906 µM) | relative viability ([2]; first compound 0.025 µM) | relative viability ([2]; first compound 0.07906 µM) | relative viability ([2]; first compound 0.25 µM) | relative viability ([3]; first compound 0.0025 µM) | relative viability ([3]; first compound 0.007906 µM) | relative viability ([3]; first compound 0.025 µM) | relative viability ([3]; first compound 0.07906 µM) | relative viability ([3]; first compound 0.25 µM)
1 | EBC-1 | 0.397 | 0.414 | 0.339 | 0.353 | 0.377 | 0.117 | 0.107 | 0.12 | 0.107 | 0.103 | 0.219 | 0.182 | 0.191 | 0.214 | 0.184 | 0.989 | 0.847 | 0.805 | 1.05 | 1.08
2 | NCI-H2347 | 0.627 | 0.603 | 0.813 | 0.788 | 0.899 | 1.23 | 1.13 | 0.716 | 0.831 | 0.881 | 0.834 | 0.813 | 0.801 | 0.621 | 0.875 | 0.992 | 0.944 | 0.956 | 0.894 | 1.03
3 | NCI-H1993 | 0.902 | 0.853 | 0.766 | 0.743 | 0.712 | 0.767 | 0.719 | 0.827 | 0.711 | 0.749 | 1.07 | 0.901 | 0.965 | 0.853 | 0.932 | 0.75 | 0.678 | 0.855 | 0.781 | 0.74
4 | NCI-H322M | 0.459 | 0.488 | 0.471 | 0.496 | 0.526 | 1.07 | 0.969 | 1.04 | 0.977 | 0.98 | 1.03 | 1.03 | 0.758 | 0.927 | 0.998 | 0.92 | 0.975 | 0.942 | 0.899 | 0.722
5 | NCI-H2342 |  |  |  |  |  | 1.14 | 1.04 | 0.893 | 0.998 | 1.01 |  |  |  |  |  |  |  |  |  | 
6 | NCI-H1792 | 0.231 | 0.3 | 0.251 | 0.345 | 0.277 |  |  |  |  |  | 1.04 | 0.976 | 0.901 | 0.855 | 0.786 | 0.722 | 0.541 | 0.487 | 0.402 | 0.344
7 | ChaGo-K-1 | 0.451 | 0.71 | 0.742 | 0.681 | 0.918 | 0.886 | 0.979 | 0.888 | 0.914 | 0.968 | 1.13 | 0.876 |  | 1.09 | 1.25 |  |  |  |  | 
8 | HCC-44 | 0.537 | 0.593 | 0.551 | 0.674 | 0.632 |  |  |  |  |  | 0.765 | 0.843 | 0.88 | 0.811 | 0.929 | 0.855 | 0.713 | 0.629 | 0.684 | 0.74
9 | NCI-H1793 | 0.265 | 0.336 | 0.364 | 0.371 | 0.256 | 0.67 | 0.784 | 0.732 | 0.665 | 0.605 |  |  |  |  |  | 0.726 | 0.868 | 0.834 | 0.66 | 0.926
10 | NCI-H1395 | 0.601 | 0.555 | 0.681 | 0.603 | 0.697 | 1.11 | 1.04 | 0.804 | 0.812 | 0.824 |  |  |  |  |  | 0.965 | 0.902 | 0.917 | 0.988 | 0.89
11 | SW 900 |  |  |  |  |  | 1.01 | 1.06 | 0.671 | 0.834 | 1.06 |  |  |  |  |  |  |  |  |  | 
